Reference: US20080287472A1 (priority 2002, published 2008)

Legend:
[1] = tested on: Erysiphe graminis f.sp. hordei (barley powdery mildew); conditions: in vivo
[2] = tested on: Pyricularia oryzae (rice blast); type: in vivo; conditions: 200 ppm, rice leaf segments, sprayed before inoculation, assessed four days after inoculation
[3] = tested on: Erysiphe graminis f.sp. tritici (wheat powdery mildew); conditions: in vivo

Row | Structure (SMILES) | melting point [°C] | control of disease [1] | control of disease [2] | control of disease [3]
1 | CCC(C)Nc1nc2ncncc2c(Cl)c1-c1c(F)cc(F)cc1F (stereo not shown) | 179 |  |  | 
2 | CC(C)Nc1c(-c2c(F)cc(F)cc2F)c(Cl)nc2cncnc12 [Compound 3 (1), [6-chloro-7-(2,4,6-trifluorophenyl)-pyrido[3,2-d]pyrimidin-8-yl]-isopropylamine] |  | greater than 60% | greater than 60% | greater than 60%
